Here are results for 2 compounds from patent publication US8513310B2, “Cosmetic use of phytosphingosine as slimming agent and cosmetic compositions comprising phytosphingosine” (LVMH Recherche, priority 2002, dated 2013).

The structures appear in SMILES notation.

Experiment [1] concerns human adipocytes. In words: Release of glycerol by human adipocytes in culture (lipolysis). Conditions: for glycerol (pg/mL) release: 25 μg/mL. The class given is cell-based. The text has this:
Human adipocytes originating from a plasty of a person, which are marketed by ZEN-BIO (USA), were used at an advanced stage of the adipocyte maturation. The reception of these cells in culture took place 16 days after sowing. […] The properties of Coleus described above for the 3T3F442A murine adipocytes were first of all verified on these human cells: lipolytic activity by measurement of the release of glycerol and non-esterified fatty acids.

Experiment [2] has as its system glycerol-3-phosphate dehydrogenase (G3PDH). Put plainly: G3PDH activity (lipogenesis) in 3T3 F442A preadipocytes treated with media conditioned by treated mature adipocytes. The format is cell-based, mouse. The note with it: 8 days, control 0.0016. An excerpt:
Thus, the mature adipocytes are firstly treated with PB+PS Secondly, the culture medium which is conditioned with these adipocytes is placed in contact with preadipocytes the maturation of which into adipocytes will be followed. A key enzyme in the process of synthesis of triglycerides is glycerol-3-phosphate dehydrogenase (G3PDH): its specific activity increases considerably during maturation and can thus be used as a precise and sensitive measurement of adipocyte conversion (Pairault J., Green H., Proc. Nat. Acad. Sci. USA, (1979) 76, 5138-42; Koekemoer T. C. et al, Int. J. Biochem. Cell Biol. (1995) 27, 625-32). […] Since G3PDH is a hydrosoluble enzyme, its activity is measured in the supernatant of the cell grindings, in the presence of appropriate substrates (NADH, TEA (triethanolamine)-EDTA, 50 mM, 1 mM). The specific activity is calculated from these determinations. […] Then, the percentage inhibition is calculated of the inhibition of the activity of the G3PDH produced by the substances compared to the controls. […] The consumption of NADH as a function of time is measured by spectrophotometry (KONTRON) at 340 nm. An absorbance variation/minute (Δ Abs/minute) can thus be calculated which corresponds to the initial rate of the enzymatic reaction. […] The total protein content is evaluated by the BCA method (Protein Assay Reagent-PIERCE LTD)

Experiment [3] concerns human adipocytes. Put plainly: Release of non-esterified fatty acids by human adipocytes in culture. The class given is cell-based. Conditions: dose of 6 ng/mL. An excerpt: Human adipocytes originating from a plasty of a person, which are marketed by ZEN-BIO (USA), were used at an advanced stage of the adipocyte maturation. The reception of these cells in culture took place 16 days after sowing. They are cultivated in a specific medium ensuring their differentiation throughout the whole treatment. • D-16: sowing • D0: start of the treatment with the extract of Coleus (PB) and/or phytosphingosine (PS) • D6 to D18: determination of the various parameters. The properties of Coleus described above for the 3T3F442A murine adipocytes were first of all verified on these human cells: lipolytic activity by measurement of the release of glycerol and non-esterified fatty acids.

For the next experiment, the system named is 3T3-F442A adipocytes. Put plainly: Leptin secretion by murine 3T3-F442A adipocytes in culture (ELISA on supernatants). The format is cell-based, mouse. Conditions: for increase in the secretion of leptin / stimulation of the leptin secretion: D21, versus control; for leptin (pg/mL) Average in culture supernatants: mature 3T3-F442A adipocytes, control 1510. The procedure: The principle of the test is to control the secretion of leptin by the adipocytes.
Culture of 3T3 F442A Cells
The 3T3 F442A preadipocytes are shown at D0 in 35 mm Petri dishes (Corning) and placed in an oven at 37° C. under an air-CO2 atmosphere (95-5). The cells are cultivated in an Eagle minimum essential medium modified according to Dulbecco (glucose 4.50 g/l) (DMEM-GIBCO BRL) supplemented with 5% of calf serum (CS) (BIOMEDIA®) and 5% of foetal calf serum (GIBCO) during the growth phase. The medium is changed at D2 and D4.
At the cell confluence (at D7), the medium is changed:
The basic medium remains the same (DMEM) but is supplemented with 10% of foetal calf serum (FCS) and insulin (5 μg/mL) (SIGMA).
The medium is then changed at D9 and D11.
At D14, D16 and D18, a treatment is made with the composition the effectiveness of which on the leptin synthesis it is sought to verify.
The leptin secreted is determined by means of a sandwich-type Elisa technique re-running with a Quantikine M Mouse Leptin Immunoassay kit.
This ELISA determination uses recombined mouse leptin, expressed in E. coli and antibodies directed against recombinant mouse leptin.
The test uses a “sandwich” immunoenzymatic technique. The microplate wells are lined with a mouse leptin polyclonal antibody.
The standards, controls and samples are deposited in the wells and, at the same moment, all the leptin present binds to the immobilised antibody.
The bound leptin is then detected by a mouse anti-leptin antibody which is coupled to an enzyme peroxidase. A substrate solution is then added into the wells. The enzymatic reaction leads to a blue solution which turns yellow after addition of a quenching solution.
The intensity of the colour measured is proportional to the amount of leptin present. The reading of the optical density is done at 450 nm on the spectrophotometer.
The determination is obtained afterwards of the dose-response curves in relation to the measurement of natural leptin, parallel to the standard curves obtained with “recombinant” Quantikine M standards. The Quantikine M kit thus enables the relative mass values for the natural mouse leptin to be determined.
The optical density measured at 450 nm is proportional to the amount of antibody fixed, which is itself proportional to the amount of leptin present initially. The results are expressed in pg/mL of leptin present in the cell supernatants.
The samples were tested in triplicate.
Three compositions containing 0.25, 1 and 2 μg/mL, respectively, of phytosphingosine or of its hydrochloride, were tested.

For experiment [4], the system named is human adipocytes. In words: Leptin secretion by human adipocytes in culture. Conditions: most effective doses lower than for murine adipocytes. The format is cell-based. An excerpt: Human adipocytes originating from a plasty of a person, which are marketed by ZEN-BIO (USA), were used at an advanced stage of the adipocyte maturation. The reception of these cells in culture took place 16 days after sowing. They are cultivated in a specific medium ensuring their differentiation throughout the whole treatment. • D-16: sowing • D0: start of the treatment with the extract of Coleus (PB) and/or phytosphingosine (PS) • D6 to D18: determination of the various parameters.

Setting [5] is: 0.25 μg/mL, day D21 (7 days of treatment).

Turning to `CCCCCCCCCCCCCCC(O)C(O)[C@@H](N)CO` (stereo in doubt) [phytosphingosine, (2S,3S,4R)-2-amino-1,3,4-octadecanetriol], the “glycerol (pg/mL) release” value is reported as 174.4 pg/mL in the experiment on human adipocytes [1] (day 3, control 73.78); 196.2 pg/mL in the experiment with human adipocytes [1] (day 6, control 120.8); 302.9 pg/mL with human adipocytes [1] (day 9, control 147.2); 416.4 pg/mL in the experiment with human adipocytes [1] (day 12, control 198.4); 460.6 pg/mL in the experiment on human adipocytes [1] (day 15, control 196.3); 659.8 pg/mL in the experiment with human adipocytes [1] (day 18, control 230.9). For the same compound, the “glycerol (pg/mL) release” value with human adipocytes [1] (day 21, control 276.6) was found to be 777.1 pg/mL; in the experiment with human adipocytes [1] (day 23, control 238.9) it was 687 pg/mL. Also, the release of glycerol entry with human adipocytes [1] (dose of 6 ng/mL) was “responsible for a release of glycerol with time”. The “O.D. (nmoles NAD+) average” value is given as 0.0014 nmoles NAD+ in experiment [2] (PB 0, PS 0.5 μg/mL) and 0.00165 nmoles NAD+ in experiment [2] (PB 0, PS 1 μg/mL). Further, in the experiment on human adipocytes [3], the “release of non-esterified fatty acids” value is on record as “without concomitant release of non-esterified fatty acids”. Also, in the experiment with 3T3-F442A adipocytes (0.25 μg/mL), the “increase in the secretion of leptin” value is reported as “more than 18%”. Moreover, the “leptin (pg/mL) Average in culture supernatants” value was 1789 pg/mL with 3T3-F442A adipocytes (setting [5]); 1563.6 pg/mL in the experiment on 3T3-F442A adipocytes (1 μg/mL, day D21); 1428.8 pg/mL in the experiment with 3T3-F442A adipocytes (2 μg/mL, day D21). In addition, in the experiment with human adipocytes [4], the “leptin secretion in human adipocytes” value is on record as “induces an increase of leptin secretion”.

With `CCCCCCCCCCCCCC[C@@H](O)[C@@H](O)[C@@H](N)CO.Cl` [Phytosphingosine hydrochloride], the “increase in the secretion of leptin” value in the experiment with 3T3-F442A adipocytes (0.25 μg/mL) is listed as “+18%”. Besides, the “leptin (pg/mL) Average in culture supernatants” value in the experiment with 3T3-F442A adipocytes (setting [5]) was found to be 1789 pg/mL; in the experiment on 3T3-F442A adipocytes (1 μg/mL, day D21), 2301.3 pg/mL; with 3T3-F442A adipocytes (2 μg/mL, day D21), 1907.9 pg/mL. Moreover, the entries for the “stimulation of the leptin secretion” value with 3T3-F442A adipocytes (1 μg/mL) and in the experiment with 3T3-F442A adipocytes (2 μg/mL) were “+52%” and “+26%”, respectively.
